Test results: ChEMBL document CHEMBL1201862, “PubChem BioAssay data set” (2004)
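The compound was tested at five concentrations on cells cultured in 96-well plates, with a 48-hour exposure period. GI50 = concentration required for 50% inhibition of growth.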 Calls of active or inactive are those of the source. Cut-off read from the data, not from the text of the source: active = GI50 up to about 1.1 µM and inactive = higher.

Assays:
Assay in all cases: NCI-60 cell line screen, 48 h
KM-20L2 = tested on: KM-20L2
M19-MEL = tested on: M19-MEL
LXFL 529 = tested on: LXFL 529
DLD-1 = tested on: DLD-1
XF498 = tested on: XF498
SNB-78 = tested on: SNB-78
HOP-18 = tested on: HOP-18
RXF 631 = tested on: RXF 631
DMS-273 = tested on: DMS-273

SMILES | GI50 (KM-20L2) | GI50 (M19-MEL) | GI50 (LXFL 529) | GI50 (DLD-1) | GI50 (XF498) | GI50 (SNB-78) | GI50 (HOP-18) | GI50 (RXF 631) | GI50 (DMS-273)
COc1ccc(/C=C2\Cc3ccccc3C2=O)cc1OC | > 100 µM (inactive) | > 100 µM (inactive) | 75 µM (inactive) | > 100 µM (inactive) | > 100 µM (inactive) | > 100 µM (inactive) | – | – | –
CCOC(=O)c1c(C)c(C)n2c1NC(=O)C2 | > 100 µM (inactive) | > 100 µM (inactive) | > 100 µM (inactive) | > 100 µM (inactive) | 0.073 µM (active) | – | > 100 µM (inactive) | > 100 µM (inactive) | > 100 µM (inactive)
C=C1C(=O)O[C@H]2C[C@@H](C)[C@@H]3CC(=O)OC[C@@]3(C)CC12 (stereo not given in full) | 18.5 µM (inactive) | 34.5 µM (inactive) | – | 23.4 µM (inactive) | – | – | 36.5 µM (inactive) | – | 28.6 µM (inactive)
COC(=O)C(Cc1nc2ccccc2nc1O)/C(=N\NC(C)(C)C)C(=O)Nc1c(C)cc(Br)cc1C (stereo not given) | – | 45.1 µM (inactive) | 21.1 µM (inactive) | 22.2 µM (inactive) | – | 22.6 µM (inactive) | – | – | –
N#CCC(=O)N/N=C(\CCN1CCCC1)CC(c1ccccc1)c1c(O)c2ccccc2oc1=O (stereo not given) | > 100 µM (inactive) | 78.7 µM (inactive) | > 100 µM (inactive) | > 100 µM (inactive) | > 100 µM (inactive) | – | > 100 µM (inactive) | > 100 µM (inactive) | –
CC(C)=CCC/C(C)=C/CC/C(C)=C/CCC1(C)CCC([C@H](C)C(=O)O)OO1.CC1=C(CC/C(C)=C/CCC2(C)CCC([C@H](C)C(=O)O)OO2)C(C)(C)CCC1 (stereo not given in full) | > 100 µM (inactive) | > 100 µM (inactive) | > 100 µM (inactive) | > 100 µM (inactive) | – | > 100 µM (inactive) | – | – | > 100 µM (inactive)
O=C1N=C2N=C(c3ccc(Cl)cc3)N(c3ccc(Cl)cc3)N2Sc2ccccc21 | > 100 µM (inactive) | > 100 µM (inactive) | > 100 µM (inactive) | > 100 µM (inactive) | 40.9 µM (inactive) | > 100 µM (inactive) | > 100 µM (inactive) | – | 67.1 µM (inactive)
CC(=O)Oc1ccc(CO)cc1OC(C)=O | > 100 µM (inactive) | > 100 µM (inactive) | > 100 µM (inactive) | > 100 µM (inactive) | 92.9 µM (inactive) | > 100 µM (inactive) | > 100 µM (inactive) | 63.2 µM (inactive) | > 100 µM (inactive)
CCC1=CCN(c2cc(C)ccn2)OC1c1ccccc1 (stereo not given) | 39.2 µM (inactive) | 34.4 µM (inactive) | 27 µM (inactive) | 34 µM (inactive) | 22.9 µM (inactive) | 43.9 µM (inactive) | > 100 µM (inactive) | 25.4 µM (inactive) | 43.6 µM (inactive)
CC(N)Cc1ccc(F)cc1 (stereo not given) | > 100 µM (inactive) | – | > 100 µM (inactive) | > 100 µM (inactive) | – | > 100 µM (inactive) | > 100 µM (inactive) | > 100 µM (inactive) | > 100 µM (inactive)
CC1(C2CCC3(C)C(C2)C3Sc2ccccc2)OCCO1 (stereo not given) | – | 19.8 µM (inactive) | 37.2 µM (inactive) | 29 µM (inactive) | 17.1 µM (inactive) | 40 µM (inactive) | – | – | 19.9 µM (inactive)
CSc1nc(NC2OC(COC(C)=O)C(OC(C)=O)C(OC(C)=O)C2OC(C)=O)c2c(n1)OCC2=O (stereo not given) | > 100 µM (inactive) | > 100 µM (inactive) | > 100 µM (inactive) | > 100 µM (inactive) | – | > 100 µM (inactive) | > 100 µM (inactive) | > 100 µM (inactive) | –
Cc1ccc(C2=Nc3ccccc3NC(=O)C2)cc1 | > 100 µM (inactive) | > 100 µM (inactive) | > 100 µM (inactive) | > 100 µM (inactive) | 35.9 µM (inactive) | 72.6 µM (inactive) | > 100 µM (inactive) | – | > 100 µM (inactive)
CC1CC(c2ccc([N+](=O)[O-])cc2)=Nc2ccccc2[S+]1[O-] (stereo not given) | 16.1 µM (inactive) | 15.9 µM (inactive) | – | 14.3 µM (inactive) | 28.7 µM (inactive) | 43.6 µM (inactive) | – | 20.8 µM (inactive) | 19 µM (inactive)
COc1cc(OC)cc(N2CCC(c3c(N)nc(N)nc3Cl)CC2)c1 | > 100 µM (inactive) | > 100 µM (inactive) | 37.8 µM (inactive) | 75.7 µM (inactive) | 26.3 µM (inactive) | > 100 µM (inactive) | – | > 100 µM (inactive) | > 100 µM (inactive)
CCNC(=O)OCc1c(COC(=O)NCC)c(-c2ccc(Cl)c(Cl)c2)n2c1CCC2 | 16.9 µM (inactive) | 23.3 µM (inactive) | 15.3 µM (inactive) | 11.8 µM (inactive) | 16.1 µM (inactive) | – | – | – | 9.48 µM (inactive)
CC1(C)C(=O)OC(n2cc(F)c(=O)[nH]c2=O)C1=O (stereo not given) | > 100 µM (inactive) | > 100 µM (inactive) | > 100 µM (inactive) | > 100 µM (inactive) | > 100 µM (inactive) | > 100 µM (inactive) | > 100 µM (inactive) | – | –
N#CC1(Cc2ccccc2)CCCCN1C(=O)c1ccccc1 (stereo not given) | > 100 µM (inactive) | > 100 µM (inactive) | > 100 µM (inactive) | > 100 µM (inactive) | > 100 µM (inactive) | > 100 µM (inactive) | > 100 µM (inactive) | > 100 µM (inactive) | > 100 µM (inactive)
CC1OC(n2cc(F)c(=O)[nH]c2=O)C=CC1=O (stereo not given) | 18.4 µM (inactive) | 19.7 µM (inactive) | 16.6 µM (inactive) | 18.1 µM (inactive) | – | 18.7 µM (inactive) | 18.3 µM (inactive) | 53.8 µM (inactive) | 18.6 µM (inactive)
C=CCCOC(=O)CO[N+](=O)[O-] | > 100 µM (inactive) | > 100 µM (inactive) | > 100 µM (inactive) | > 100 µM (inactive) | > 100 µM (inactive) | – | – | – | > 100 µM (inactive)
COC1CC(CC2CCC(C)C(C(C)C(=O)O)O2)OC2(OC(C)(C3CCC(C)(C4OC(C5OC(O)(CO)C(C)CC5C)CC4C)O3)CC2C)C1C (stereo not given) | 0.124 µM (active) | 0.239 µM (active) | 0.0535 µM (active) | 0.51 µM (active) | 0.0423 µM (active) | 1.51 µM (inactive) | 0.284 µM (active) | 0.0738 µM (active) | 0.0719 µM (active)
Cc1cc2c(=O)c3ccccc3[nH]c2c(C(N)=O)c1C | > 100 µM (inactive) | > 100 µM (inactive) | > 100 µM (inactive) | > 100 µM (inactive) | > 100 µM (inactive) | > 100 µM (inactive) | > 100 µM (inactive) | > 100 µM (inactive) | –
CSC1NC=Nc2c1sc(=S)n2-c1ccccc1 (stereo not given) | > 100 µM (inactive) | > 100 µM (inactive) | > 100 µM (inactive) | > 100 µM (inactive) | > 100 µM (inactive) | 43.5 µM (inactive) | > 100 µM (inactive) | – | > 100 µM (inactive)
CCOC(=O)CP(=S)(S)c1ccccc1 (stereo not given) | > 100 µM (inactive) | > 100 µM (inactive) | > 100 µM (inactive) | > 100 µM (inactive) | 45.2 µM (inactive) | > 100 µM (inactive) | – | – | > 100 µM (inactive)
C=CC1[C@H]2COC(C)(C)O[C@@H]2CC(=O)C1(C)C (stereo not given in full) | > 100 µM (inactive) | > 100 µM (inactive) | > 100 µM (inactive) | > 100 µM (inactive) | > 100 µM (inactive) | > 100 µM (inactive) | > 100 µM (inactive) | – | > 100 µM (inactive)
CC1CC2OC(=O)CC2C[C@@H]1O[Si](C)(C)C(C)(C)C (stereo not given in full) | 46.3 µM (inactive) | 42.8 µM (inactive) | 68.7 µM (inactive) | 83.4 µM (inactive) | – | > 100 µM (inactive) | > 100 µM (inactive) | 44.5 µM (inactive) | 33.7 µM (inactive)
COc1cc([C@@H]2c3cc4c(cc3C[C@H]3COC(=O)[C@@H]32)OCO4)cc(OC)c1OC [DESOXYPODOPHYLLOTOXIN] | 0.00703 µM (active) | 0.00986 µM (active) | – | 0.00843 µM (active) | 0.00859 µM (active) | 0.00875 µM (active) | 33.6 µM (inactive) | – | 0.00728 µM (active)
C[C@@H]1C[C@H]2[C@@H]3CCC4=CC(=O)C=C[C@]4(C)[C@@]3(F)[C@@H](O)C[C@]2(C)[C@@]1(O)C(=O)CO [DEXAMETHASONE] | > 100 µM (inactive) | > 100 µM (inactive) | > 100 µM (inactive) | > 100 µM (inactive) | – | – | – | – | –
